The subject of series [1] is Candida albicans. Briefly: Antifungal activity against Candida albicans ATCC10231 assessed as inhibition of fungal growth incubated for 72 hrs by broth microdilution method. It counts as functional. (Dilution methods test growth across graded concentrations, often in twofold steps.)
The subject of series [2] is Candida tropicalis. The experiment in a line: Antifungal activity against Candida tropicalis ATCC1369 assessed as inhibition of fungal growth incubated for 72 hrs by broth microdilution method. In kind it is functional.
Series [3] concerns Cryptococcus neoformans. The experiment in a line: Antifungal activity against Cryptococcus neoformans ATCC32045 assessed as inhibition of fungal growth incubated for 72 hrs by broth microdilution method. In kind it is functional.
The test system of series [4] is Aspergillus fumigatus. The experiment in a line: Antifungal activity against Aspergillus fumigatus AS3.3913 assessed as inhibition of fungal growth incubated for 72 hrs by broth microdilution method. In kind it is functional.
The subject of series [5] is Cryptococcus neoformans. Briefly: Fungicidal activity against Cryptococcus neoformans ATCC32045 incubated for 72 hrs. In kind it is functional.
Series [6] concerns Cryptococcus neoformans. Briefly: Fungicidal activity against Cryptococcus neoformans ATCC32045 assessed as reduction in viable colony count incubated for 12 hrs by time kill assay. In kind it is functional, organism-based.
In series [7] the test system is Cryptococcus neoformans. Briefly: Fungicidal activity against Cryptococcus neoformans ATCC32045 assessed as reduction in viable colony counts at 0.5 to 1 ug/ml observed within 4 hrs by time kill assay (reference value: 6 log10CFU/ml). It counts as functional. As to conditions: dose 0.5-1 µg/ml.
For series [8], the system named is Cell membrane. The experiment in a line: Disruption of membrane integrity in Cryptococcus neoformans ATCC32045 assessed as red fluorescence at 2 ug/ml incubated for 4 hrs by PI staining based fluorescence microscopic analysis. It counts as subcellular. To be noted: dose 2.0 µg/ml.
In series [9] the test system is Cell membrane. The experiment in a line: Disruption of membrane integrity in Cryptococcus neoformans ATCC32045 assessed as blue fluorescence at 2 ug/ml incubated for 4 hrs by DAPI staining based fluorescence microscopic analysis. In kind it is subcellular. As to conditions: dose 2.0 µg/ml.
Series [10] can be described thus: Cytotoxicity against HUVEC cells assessed as inhibition of cell viability incubated for 24 hrs by CCK-8 assay. To be noted: human. In kind it is toxicity, cell-based. For orientation: Tetrazolium dyes change colour on reduction, which living cells bring about.
Series [11] can be described thus: Selectivity index, ratio of CC50 for HUVEC cells to MIC for antifungal activity against Cryptococcus neoformans ATCC32045. In kind it is toxicity. As to conditions: human, read-out: Selectivity Index.
For series [12], the system named is Cryptococcus neoformans. Briefly: Selectivity ratio of MFC for Cryptococcus neoformans ATCC32045 to MIC for Cryptococcus neoformans ATCC32045. It counts as functional.
Series [13] has as its system Cryptococcus neoformans. The experiment in a line: Antibiofilm activity against Cryptococcus neoformans ATCC32045 assessed as inhibition of biofilm formation incubated for 24 hrs by XTT reduction assay. To be noted: dose 0.125-8 µg/ml. In kind it is functional, organism-based.
Series [14] concerns Cryptococcus neoformans. Briefly: Antibiofilm activity against Cryptococcus neoformans ATCC32045 assessed as inhibition of biofilm formation at >=4 ug/ml incubated for 24 hrs by XTT reduction assay relative to control. In kind it is functional. To be noted: dose >= 4 µg/ml.
The subject of series [15] is Cryptococcus neoformans. The experiment in a line: Disruption of 24 hrs preformed biofilm in Cryptococcus neoformans ATCC32045 incubated for 24 hrs by XTT reduction assay. In kind it is functional, organism-based. As to conditions: dose 0.125-8 µg/ml.
Series [16] has as its system Cryptococcus neoformans. The experiment in a line: Antibiofilm activity against Cryptococcus neoformans ATCC32045 assessed as reduction in 24 hrs preformed biofilm at 1 ug/ml incubated for 24 hrs by XTT reduction assay relative to control. In kind it is functional. On the set-up: scale not given: the % may be the effect or the level left. To be noted: dose 1 µg/ml.

Series [17] deals with Cryptococcus neoformans. The experiment in a line: Antifungal activity against Cryptococcus neoformans ATCC32045 assessed as inhibition of melanin production at 8 ug/ml. In kind it is functional, organism-based. As to conditions: dose 8.0 µg/ml.
For series [18], the system named is Cryptococcus neoformans. The experiment in a line: Antifungal activity against Cryptococcus neoformans ATCC32045 assessed as inhibition of urease production at 2 ug/ml. In kind it is functional, organism-based. As to conditions: dose 2.0 µg/ml.
In series [19] the test system is Cell membrane. Briefly: Disruption of cell membrane in Cryptococcus neoformans ATCC32045 assessed as cell shrinkage at 2 ug/ml incubated for 12 hrs by scanning electron microscopy analysis. It counts as subcellular. To be noted: dose 2.0 µg/ml.
The test system of series [20] is Cell membrane. Briefly: Disruption of cell membrane in Cryptococcus neoformans ATCC32045 assessed as cell wrinkling at 2 ug/ml incubated for 12 hrs by scanning electron microscopy analysis. It counts as subcellular. As to conditions: dose 2.0 µg/ml.
The test system of series [21] is Cell membrane. Briefly: Disruption of cell membrane in Cryptococcus neoformans ATCC32045 assessed as cell disintegration at 2 ug/ml incubated for 12 hrs by scanning electron microscopy analysis. In kind it is subcellular. As to conditions: dose 2.0 µg/ml.

Values after ≈ are worked out from the molar mass of the structure shown. Active and inactive are the calls of the source. No cut-off for these calls is given here.

By MIC is commonly meant the least concentration at which growth counts as inhibited. In general, MFC refers to the lowest tested concentration that kills the fungus rather than only halting it. The CC50 is the concentration giving 50% cytotoxicity. Regarding `C[C@@H]1[C@H](O)[C@@H](C)/C=C/C=C/C=C/C=C/C=C/C=C/C=C/[C@H](O[C@@H]2O[C@H](C)[C@@H](O)[C@H](N)[C@@H]2O)C[C@@H]2O[C@](O)(C[C@@H](O)C[C@@H](O)[C@H](O)CC[C@@H](O)C[C@@H](O)CC(=O)O[C@H]1C)C[C@H](O)[C@H]2C(=O)O` [AMPHOTERICIN B], the minimum inhibitory concentration (MIC) in [1] amounted to 0.5 µg/mL (≈ 0.541 µM); in series [2] it was 0.5 µg/mL (≈ 0.541 µM); in series [3], 0.25 µg/mL (≈ 0.271 µM); in series [4], 2 µg/mL (≈ 2.16 µM). For the same compound, in series [5], the minimum fungicidal concentration (MFC) amounted to 2 µg/mL (≈ 2.16 µM). Also, the Activity result in series [6] is “Dose-Dependent Effect”; in series [7], 4 log10CFU/ml. Also, the result in series [8] and in series [9] was Active. The CC50 at 24 h in [10] was determined as 4.12 µg/mL (≈ 4.46 µM). Besides, the Selectivity ratio in series [11] was determined as 16.

As for `CCCCCc1ccc(-c2cc(O)cc(O)c2)cc1`, the MIC was 2 µg/mL (≈ 7.8 µM) in series [1], 1 µg/mL (≈ 3.9 µM) in series [2], 0.25 µg/mL (≈ 0.975 µM) in series [3] and 8 µg/mL (≈ 31.2 µM) in series [4]. The Selectivity ratio in [12] was 4. In [5], this compound showed an MFC of 1 µg/mL (≈ 3.9 µM). Besides, the Activity result in [6] is “Dose-Dependent Effect”; in series [7], 4 log10CFU/ml; in [13], “Dose-Dependent Effect”; in series [15], “Dose-Dependent Effect”; in series [16] it was roughly 71.6%. Besides, the outcome in series [8], in series [9], in series [17], in series [18], in series [19] and in [20] was Active. In series [21], the outcome was Active. In addition, the “inhibition (INH)” value in series [14] is roughly 100%. For the same compound, in series [10], the CC50 at 24 h stood at 19.4 µg/mL (≈ 75.7 µM).

These data come from ChEMBL document CHEMBL5634120, “Natural phytoalexins inspired the discovery of new biphenyls as potent antifungal agents for treatment of invasive fungal infections” (Eur J Med Chem, 2023).
